Experiments:
[1] = tested on: semi-purified tubulin/parkin complex; assay: Biotin Tag Conjugation of Tubulin/Parkin Complex; assay type: biochemical, rat; conditions: for labeling of tubulin in tubulin/parkin complex (FIG. 8): FIG. 8 lanes 3 and 6; for biotin labeling efficiency of parkin-mediated tubulin modification versus recognition sequence: FIG. 2b, tags 1-6 compared
Protocol: A total of 4 μg semi-purified tubulin/parkin complex and varying concentrations of the biotin tag was incubated at 37° C. for 15 min in 10 μL buffers of 50 mM Tris, 50 mM NaCl, 10 mM MgCl2, 10 μM ATP, pH 7.6. For DTT reduction, 1 μL of 6M DTT was added and the solution was incubated at r.t. for additional 30 min. Reactions were terminated by the additions of 2 μL 6×SDS-PAGE sample buffer containing 100 mM DTT and the mixtures were boiled at 95° C. for 5 min. The biotin-labeled substrates were resolved from the free biotin tags with 8-16% Tris-Glycine SDS-PAGE gel, transferred onto the PVDF membrane using a semi-dry protein transfer apparatus, and detected using the VECTASTAIN ABC-AmP detection system following the manufacturer's protocol. The intensities of protein bands are quantified with the ImageJ program (http://rsb.info.nih.gov/ij/) following the program manual.

[2] = target: T1, ubiquitin activating enzyme (E1), rabbit (Oryctolagus cuniculus, UniProt Q29504); assay: E1-Biotin Tag Conjugation Assay; assay type: biochemical
T1 construct: purchased Boston Biochem E-302
T1 sequence (Q29504 1-1058): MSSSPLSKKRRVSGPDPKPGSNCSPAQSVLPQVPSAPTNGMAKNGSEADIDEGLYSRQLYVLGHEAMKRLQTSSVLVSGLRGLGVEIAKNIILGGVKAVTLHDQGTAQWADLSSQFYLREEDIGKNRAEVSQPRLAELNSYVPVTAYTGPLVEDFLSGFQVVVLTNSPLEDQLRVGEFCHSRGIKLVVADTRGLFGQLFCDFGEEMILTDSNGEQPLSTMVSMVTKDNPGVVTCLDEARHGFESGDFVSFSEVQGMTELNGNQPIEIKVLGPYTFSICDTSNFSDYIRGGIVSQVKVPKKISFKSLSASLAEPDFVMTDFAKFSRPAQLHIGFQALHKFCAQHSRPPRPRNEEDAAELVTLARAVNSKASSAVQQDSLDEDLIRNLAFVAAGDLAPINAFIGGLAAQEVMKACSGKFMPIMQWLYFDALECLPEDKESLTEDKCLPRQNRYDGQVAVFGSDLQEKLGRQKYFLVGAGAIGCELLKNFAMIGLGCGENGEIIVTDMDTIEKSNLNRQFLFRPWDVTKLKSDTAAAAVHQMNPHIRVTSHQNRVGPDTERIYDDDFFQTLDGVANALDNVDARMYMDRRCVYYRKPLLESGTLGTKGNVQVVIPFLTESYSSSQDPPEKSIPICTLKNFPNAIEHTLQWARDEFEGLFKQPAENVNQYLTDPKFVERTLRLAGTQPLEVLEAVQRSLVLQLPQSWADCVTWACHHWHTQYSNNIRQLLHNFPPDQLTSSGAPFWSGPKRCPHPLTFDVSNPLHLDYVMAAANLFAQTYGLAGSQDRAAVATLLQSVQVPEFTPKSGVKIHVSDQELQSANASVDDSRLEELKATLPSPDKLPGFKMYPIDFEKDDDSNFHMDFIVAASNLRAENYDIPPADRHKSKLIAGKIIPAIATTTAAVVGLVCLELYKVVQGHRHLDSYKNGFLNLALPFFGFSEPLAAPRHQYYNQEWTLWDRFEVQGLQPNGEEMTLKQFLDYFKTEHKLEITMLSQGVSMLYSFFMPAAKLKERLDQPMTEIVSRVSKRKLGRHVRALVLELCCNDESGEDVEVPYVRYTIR
Protocol: The E1 enzyme was diluted with 50 mM HEPES buffer, pH 7.6 to derive the 0.45 μM stocks. A total of 90 nM rabbit E1 and varying concentrations of tag 1 was incubated at 37° C. for 5 min in 10 μL buffers of 50 mM Tris, 50 mM NaCl, 10 mM MgCl2, 10 μM ATP, pH 7.6. The reactions were terminated by the additions of 2 μL 6× bromophenol-absent SDS sample buffer and the mixtures were boiled at 85° C. for 2 min. The biotin-labeled E1 thioesters were resolved from the free biotin tags with 8-16% Tris-Glycine SDS-PAGE gel, transferred onto the PVDF membrane using a semi-dry protein transfer apparatus, and detected using the VECTASTAIN ABC-AmP detection system following the manufacturer's protocol. Briefly, the membrane was washed three times for 4 min each in 10 mL 1× casein solution at r.t. with gentle shaking, and then incubated in the 10 mL 1× casein blotting solution containing 20 μL each of reagent A and B from the kit for 10 min. The membrane was washed three times for 4 min each in 10 mL 1× casein solution, followed by equilibration in 10 mL 0.1M Tris buffer, pH 9.5, for 5 min. The excess buffer was removed and the blot surface was incubated in 3 mL DuoLux chemiluminescent substrate for 5 min under subdued light. Briefly rinse the blot in 0.1 M Tris buffer, pH 9.5, and remove the excess buffer by touching the edge of the blot to absorbent paper. The image was obtained by exposing the blot to the Kodak BioMax Light Film.

[3] = target: T2, UbCH7 (E2), human recombinant (Homo sapiens, UniProt P68036); assay: E2-Biotin Tag Conjugation Assay; assay type: biochemical
T2 construct: purchased Boston Biochem E2-640
T2 sequence (P68036 whole entry): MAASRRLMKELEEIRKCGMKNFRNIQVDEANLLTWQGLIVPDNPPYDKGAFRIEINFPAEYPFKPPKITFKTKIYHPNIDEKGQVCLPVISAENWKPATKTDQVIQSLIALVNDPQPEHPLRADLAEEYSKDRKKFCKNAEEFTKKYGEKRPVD
Protocol: The UbCH7 enzyme was diluted with a buffer of 50 mM HEPES, 50 mM NaCl, 10% glycerol, pH 7.6 to derive the 10 μM stocks. […] Reactions were terminated by the additions of 2 μL 6× non-reducing bromophenol-absent SDS-PAGE sample buffer and the mixtures were boiled at 85° C. for 2 min. The biotin-labeled […] were resolved from the free biotin tags with 8-16% Tris-Glycine SDS-PAGE gel, transferred onto the PVDF membrane using a semi-dry protein transfer apparatus, and detected using the VECTASTAIN ABC-AmP detection system following the manufacturer's protocol.

[4] = tested on: Fraction II, rabbit reticulocyte; assay: Fraction II - Biotin Tag Conjugation Assay; assay type: biochemical; conditions: ubiquitin-free reticulocyte fraction II containing E1, E2, E3 activities
Protocol: The fraction II from rabbit reticulocyte lysates was cleaned with ImmunoPure immobilized streptavidin beads from Pierce (Rockford, Ill.) to remove non-specific streptavidin-binding proteins following the manufacturer's instruction. An aliquot (11 μg) was then incubated with various amounts of biotin tag in 10 μL reaction buffer (100 mM Tris, 3 mM DTT, 5 mM MgCl2, 2 mM ATP, pH 7.6) at 37° C. for 5 min. The reactions were terminated by adding 2 μL 6×SDS-PAGE sample buffer and the mixtures were boiled at 85° C. for 2 min. The biotin-labeled substrates were resolved from the free biotin tags with 8-16% Tris-Glycine SDS-PAGE gel, transferred onto the PVDF membrane using a semi-dry protein transfer apparatus, and detected using the VECTASTAIN ABC-AmP detection system following the manufacturer's protocol.

O=C(O)CCCCCNC(=O)CCCC[C@@H]1SC[C@@H]2NC(=O)N[C@@H]21 [long-chain biotin, biotinylaminohexanonic acid, reference compound]
labeling of proteins in tubulin/parkin complex ([1]; 450 μM): no labeling of any protein | labeling of tubulin in tubulin/parkin complex (FIG. 8) [1]: could not label the tubulins

tag 1: biotin linked through aminohexanoic acid linker to recognition sequence LRLRGG (SEQ ID NO: 1) (HELM PEPTIDE1{[O=C1N[C@H]2[C@H](CS[C@H]2CCCCC(=O)[*:2])N1].[O=C(CCCCCN[*:1])[*:2]].L.R.L.R.G.G}$$$$V2.0; SMILES CC(C)C[C@H](NC(=O)CCCCCNC(=O)CCCC[C@@H]1SC[C@@H]2NC(=O)N[C@@H]21)C(=O)N[C@@H](CCCNC(=N)N)C(=O)N[C@@H](CC(C)C)C(=O)N[C@@H](CCCNC(=N)N)C(=O)NCC(=O)NCC(=O)O)
formation of E1-biotin tag adduct (E1-1 thioester) ([2]; incubated with E1 for 5 min, non-reducing ATP-supplemented buffer, streptavidin blot): biotin-containing protein bands with the size matching that of E1 were detected | E1 biotin-adduct formation on withdrawal of ATP ([2]; no ATP in reaction buffer, tag 150 μM (FIG. 6)): aborted the biotin-adduct formation | biotin labeling of E2 in the absence of E1 ([3]; incubation with E2 alone, no E1): did not give rise to the biotin-labeled E2 | extent of tag transfer from E1-1 to E2 ([3]; tag concentration reduced to 50 μM, E1 and E2 present): undetectable level | covalent modification of proteins in fraction II extract [4]: concentration-dependent covalent modification of a large number of proteins | concentration range of concentration-dependent biotin labeling of 55 KDa protein (tubulin) ([1]; 10 μM ATP, FIG. 2a): 17 to 450 µM | biotin labeling efficiency of parkin-mediated tubulin modification versus recognition sequence [1]: highest labeling efficacy | labeling of tubulin in tubulin/parkin complex (FIG. 8) [1]: Robust labeling

tag 2: biotin linked through aminohexanoic acid linker to sequence LALRGG (SEQ ID NO: 2) (HELM PEPTIDE1{[O=C1N[C@H]2[C@H](CS[C@H]2CCCCC(=O)[*:2])N1].[O=C(CCCCCN[*:1])[*:2]].L.A.L.R.G.G}$$$$V2.0; SMILES CC(C)C[C@H](NC(=O)CCCCCNC(=O)CCCC[C@@H]1SC[C@@H]2NC(=O)N[C@@H]21)C(=O)N[C@@H](C)C(=O)N[C@@H](CC(C)C)C(=O)N[C@@H](CCCNC(=N)N)C(=O)NCC(=O)NCC(=O)O)
activity in E1 adduct formation ([2]; concentrations as high as 450 μM): almost no activity | biotin labeling efficiency of parkin-mediated tubulin modification versus recognition sequence [1]: decreased biotin labeling

Source: US20080305519A1, “Biochemical method for specific protein labeling” (priority 2006, published 2008)
